Molecular target: c-KIT (Homo sapiens, UniProt P10721)
Assay: c-KIT ADP-Glo biochemical assay
Conditions: class ranges
Method: The inhibitory activity against c-KIT was measured using ADP-Glo assay. The percent (%) inhibition at each concentration of compound is calculated based on and relative to the luminescence signal in the Max and Min control wells contained within each assay plate. The Max control wells contain enzyme and substrate as 0% inhibition, and the Min control wells only contain substrate without enzyme as 100% inhibition. The concentrations and % inhibition values for tested compounds are plotted and the concentration of compound required for 50% inhibition (IC50) is determined with a four-parameter logistic dose response equation. The ability of the compounds in Table 1 to inhibit c-KIT was determined.

c-KIT, sequence (P10721 26-976): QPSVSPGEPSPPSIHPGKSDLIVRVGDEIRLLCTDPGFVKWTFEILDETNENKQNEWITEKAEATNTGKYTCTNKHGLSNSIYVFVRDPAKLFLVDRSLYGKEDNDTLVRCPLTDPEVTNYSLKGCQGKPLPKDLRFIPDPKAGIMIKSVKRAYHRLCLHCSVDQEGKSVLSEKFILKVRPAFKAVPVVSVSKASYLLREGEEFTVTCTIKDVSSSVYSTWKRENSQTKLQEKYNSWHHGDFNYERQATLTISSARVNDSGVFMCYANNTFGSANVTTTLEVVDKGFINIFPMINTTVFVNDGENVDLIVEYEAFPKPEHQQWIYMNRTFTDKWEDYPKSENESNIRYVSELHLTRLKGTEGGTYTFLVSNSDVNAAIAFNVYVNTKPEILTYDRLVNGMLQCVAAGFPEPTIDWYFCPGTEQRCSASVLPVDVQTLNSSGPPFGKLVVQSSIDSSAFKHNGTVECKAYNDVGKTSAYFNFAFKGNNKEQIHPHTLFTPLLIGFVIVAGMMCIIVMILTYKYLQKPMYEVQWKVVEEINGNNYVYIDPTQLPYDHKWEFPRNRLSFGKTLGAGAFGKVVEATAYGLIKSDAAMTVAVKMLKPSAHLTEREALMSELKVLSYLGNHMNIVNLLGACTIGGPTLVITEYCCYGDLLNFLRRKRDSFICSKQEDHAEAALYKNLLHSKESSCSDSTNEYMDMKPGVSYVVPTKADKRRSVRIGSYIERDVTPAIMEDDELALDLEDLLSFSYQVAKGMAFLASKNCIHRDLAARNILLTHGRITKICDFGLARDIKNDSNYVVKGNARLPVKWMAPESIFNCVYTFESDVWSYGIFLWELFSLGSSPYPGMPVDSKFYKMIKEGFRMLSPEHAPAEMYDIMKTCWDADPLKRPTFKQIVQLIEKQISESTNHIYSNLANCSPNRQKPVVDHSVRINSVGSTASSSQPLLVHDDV

Structure (SMILES)	IC50
Cc1c(F)cc(-c2noc([C@H]3C[C@@H]3F)n2)cc1NC(=O)c1cnc2cc(N3CCNCC3)ccn12 (racemic) [Compound C022, N-(3-fluoro-5-(5-((1R,2S)-2-fluorocyclopropyl)-1,2,4-oxadiazol-3-yl)-2-methylphenyl)-7-(piperazin-1-yl)imidazo[1,2-a]pyridine-3-carboxamide]	1000 to 20000 nM
Cc1c(F)cc(-c2noc([C@H]3C[C@@H]3F)n2)cc1NC(=O)c1cnc2ccc(N3CCOCC3)cn12 (racemic) [Compound C008, N-(3-fluoro-5-(5-((1R,2S)-2-fluorocyclopropyl)-1,2,4-oxadiazol-3-yl)-2-methylphenyl)-6-morpholinoimidazo[1,2-a]pyridine-3-carboxamide]	1000 to 20000 nM
COC(=O)N1CC(c2nc(-c3cc(F)c(C)c(NC(=O)c4cnc5cc(F)ccn45)c3)no2)C1 [Compound C024, methyl 3-(3-(3-fluoro-5-(7-fluoroimidazo[1,2-a]pyridine-3-carboxamido)-4-methylphenyl)-1,2,4-oxadiazol-5-yl)azetidine-1-carboxylate]	100 to 1000 nM
Cc1c(F)cc(-c2noc(C3CC(F)(F)C3)n2)cc1NC(=O)c1cnc2ccc(N3CCOCC3)cn12 [Compound C007, N-(5-(5-(3,3-difluorocyclobutyl)-1,2,4-oxadiazol-3-yl)-3-fluoro-2-methylphenyl)-6-morpholinoimidazo[1,2-a]pyridine-3-carboxamide]	100 to 1000 nM
COC(=O)N1CC[C@H](c2nc(-c3cc(F)c(C)c(NC(=O)c4cnc5ccccn45)c3F)no2)C1 [Compound C055, methyl (S)-3-(3-(2,5-difluoro-3-(imidazo[1,2-a]pyridine-3-carboxamido)-4-methylphenyl)-1,2,4-oxadiazol-5-yl)pyrrolidine-1-carboxylate]	100 to 1000 nM

More lines, now with the values ahead:

IC50	Structure (SMILES)
≤ 100 nM	CC(=O)N1CCN(c2ccc3ncc(C(=O)Nc4cc(-c5noc(C6CC(F)(F)C6)n5)cc(F)c4C)n3c2)CC1 [Compound C038, 6-(4-acetylpiperazin-1-yl)-N-(5-(5-(3,3-difluorocyclobutyl)-1,2,4-oxadiazol-3-yl)-3-fluoro-2-methylphenyl)imidazo[1,2-a]pyridine-3-carboxamide]
100 to 1000 nM	COC(=O)N1CC(c2nc(-c3cc(F)c(C)c(NC(=O)c4cnc5cc(N6CCNCC6)ccn45)c3)no2)C1 [Compound C030, methyl 3-(3-(3-fluoro-4-methyl-5-(7-(piperazin-1-yl)imidazo[1,2-a]pyridine-3-carboxamido)phenyl)-1,2,4-oxadiazol-5-yl)azetidine-1-carboxylate]
100 to 1000 nM	COC(=O)N1CC(c2noc(-c3cc(F)c(C)c(NC(=O)c4cnc5ccccn45)c3)n2)C1 [Compound C037, methyl 3-(5-(3-fluoro-5-(imidazo[1,2-a]pyridine-3-carboxamido)-4-methylphenyl)-1,2,4-oxadiazol-3-yl)azetidine-1-carboxylate]
100 to 1000 nM	COC(=O)N1CC(c2nc(-c3cc(F)c(C)c(NC(=O)c4cnc5ccc(C)cn45)c3)no2)C1 [Compound C021, methyl 3-(3-(3-fluoro-4-methyl-5-(6-methylimidazo[1,2-a]pyridine-3-carboxamido)phenyl)-1,2,4-oxadiazol-5-yl)azetidine-1-carboxylate]

From patent publication US20250313556A1, “CERTAIN CHEMICAL ENTITIES, COMPOSITIONS, AND METHODS” (MRJA THERAPEUTICS, INC., priority 2022, published 2025)
